Laboratory results from patent US20090318690A1 (priority 2006, published 2009).
Where a name gives a salt, the structure may show the parent alone.

Columns and labels:
[1] = biological target: T1, serotonin transporter (SERT) (Rattus norvegicus, UniProt P31652); assay: Serotonin transporter binding inhibitory activity ([3H]paroxetine binding, rat cerebral cortex membrane fraction)
T1 construct: The rat cerebral cortex was homogenized in ice-cold 0.32 M sucrose; from tissue; host or cells: rat cerebral cortex membrane fraction
T1 sequence (P31652 whole entry): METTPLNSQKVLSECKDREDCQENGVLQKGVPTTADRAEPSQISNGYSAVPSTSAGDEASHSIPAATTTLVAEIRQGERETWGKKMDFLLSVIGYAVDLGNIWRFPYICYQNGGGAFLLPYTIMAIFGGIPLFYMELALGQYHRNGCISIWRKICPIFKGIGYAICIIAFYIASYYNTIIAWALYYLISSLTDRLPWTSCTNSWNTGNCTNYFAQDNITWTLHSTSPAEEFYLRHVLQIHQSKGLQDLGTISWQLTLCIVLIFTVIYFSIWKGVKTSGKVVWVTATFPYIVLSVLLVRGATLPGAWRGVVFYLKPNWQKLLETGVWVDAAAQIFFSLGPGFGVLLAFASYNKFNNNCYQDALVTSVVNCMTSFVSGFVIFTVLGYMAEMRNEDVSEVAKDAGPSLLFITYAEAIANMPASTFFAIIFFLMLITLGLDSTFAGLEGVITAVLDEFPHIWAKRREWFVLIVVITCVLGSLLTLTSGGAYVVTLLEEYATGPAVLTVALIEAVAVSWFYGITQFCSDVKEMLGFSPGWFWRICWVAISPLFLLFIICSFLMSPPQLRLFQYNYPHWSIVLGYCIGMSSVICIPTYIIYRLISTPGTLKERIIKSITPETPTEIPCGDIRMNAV
Procedure: Affinity of the test substance to a serotonin transporter (SERT) was determined by a test of inhibition of binding of [^3H]paroxetine selectively binding to SERT to a rat cerebral cortex membrane fraction by the test substance. Serotonin reuptake inhibitors are generally known to have SERT binding inhibitory activity. Based on the assumption that the intensity of SERT binding inhibitory activity of the test substance indicates the intensity of reuptake inhibitory activity, affinity of the test substance to SERT was determined and the intensity of the activity was estimated (according to the method described in Marcusson, J.; Eriksson, K; J. Neurochemistry, 1988, 51 (5), 1477).
The rat cerebral cortex was homogenized in ice-cold 0.32 M sucrose. The suspension was centrifuged at 1,000×g for 10 minutes. The resulting supernatant was further centrifuged at 20,000×g for 20 minutes. The resulting precipitate was suspended in 50 mM Tris-HCl (pH 7.4) containing 120 mM NaCl and 5 mM KCl (hereinafter called suspension A) and centrifuged at 20,000×g for 20 minutes. The same operation was repeated once more. The finally obtained precipitate was suspended in a suspension A having a wet weight about 100 times that of the rat cerebral cortex to prepare a membrane fraction which was stored at −80° C. until use.
An incubation mixture (0.5 mL) contained a solution obtained by further diluting the test substance dissolved in DMSO (dimethyl sulfoxide) to a desired concentration (control: only DMSO) 500-fold with purified water (25 μL); a [^3H]paroxetine solution (final concentration: 0.05 nM) as a ligand (25 μL); and the membrane fraction prepared as described above (450 μL). The reaction was started by addition of the membrane fraction, followed by incubation at room temperature for 90 minutes. After the incubation, the mixture was filtered by suction through a GF/B filter using a cell harvester. The filter was washed with 50 mM Tris-HCl (pH 7.4) and then radioactivity of [^3H]paroxetine binding to SERT was measured using a liquid scintillation counter. Binding detected in the presence of 1 or 10 μM fluoxetine was defined as non-specific binding.

[2] = biological target: T2, acetylcholine esterase (Rattus norvegicus, UniProt P37136); assay: Acetylcholine esterase inhibitory activity (Ellman method); assay type: biochemical; settings: supernatant of male Wistar rat cerebral homogenate; acetylthiocholine/DTNB, absorbance 412 nm; read-out: Acetylcholine esterase inhibition (IC50)
T2 construct: a centrifugation supernatant of a male Wistar rat cerebral homogenate as an acetylcholine esterase source; from tissue; host or cells: male Wistar rat cerebrum, Triton X-100 homogenate supernatant
T2 sequence (P37136 32-614): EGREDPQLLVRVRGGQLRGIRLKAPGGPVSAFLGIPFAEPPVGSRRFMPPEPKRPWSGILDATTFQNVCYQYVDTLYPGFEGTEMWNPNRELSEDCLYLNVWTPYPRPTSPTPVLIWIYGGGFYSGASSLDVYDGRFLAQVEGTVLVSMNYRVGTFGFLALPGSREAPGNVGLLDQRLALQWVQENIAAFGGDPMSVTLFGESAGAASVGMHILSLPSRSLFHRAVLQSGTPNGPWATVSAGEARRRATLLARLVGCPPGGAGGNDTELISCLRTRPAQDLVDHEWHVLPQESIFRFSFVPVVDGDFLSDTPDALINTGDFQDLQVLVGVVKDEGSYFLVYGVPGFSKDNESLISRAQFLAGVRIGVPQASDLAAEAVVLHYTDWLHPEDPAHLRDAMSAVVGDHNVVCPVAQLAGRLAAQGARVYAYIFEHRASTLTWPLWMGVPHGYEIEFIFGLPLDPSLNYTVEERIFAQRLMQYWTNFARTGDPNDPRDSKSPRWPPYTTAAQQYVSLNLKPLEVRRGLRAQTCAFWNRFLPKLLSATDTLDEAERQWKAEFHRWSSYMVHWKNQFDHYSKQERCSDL
Procedure: Esterase activity was measured according to the method of Ellman et al. (Biochem. Pharmacol., 1961, 7, 88-95) using a centrifugation supernatant of a male Wistar rat cerebral homogenate as an acetylcholine esterase source. First, a sample dissolved in dimethyl sulfoxide (DMSO) (10 mM) was dissolved in water to 30 μM, and eight serial dilutions were prepared at a common ratio of 3 with 30 μM as a highest concentration. Next, 18 times weight of a phosphate buffer [0.1 M phosphate buffer (0.1 M Na2HPO4, prepared from 0.1 M KH2PO4; pH 8.0) with 0.5% Triton X-100] was added to the rat cerebrum. The mixture was homogenized and centrifuged at 3000 rpm for five minutes. The supernatant was diluted 30-fold with a phosphate buffer (pH 8.0) and dispensed to a 96-well plate at 165 μL/well. 6 μL of the diluted sample was added, followed by preincubation at room temperature for about 10 minutes. Thereafter, 9 μL of a reaction mixture [10 mM 5,5′-dithiobis(2-nitrobenzoic acid) (DTNB)/0.1 M phosphate buffer (pH 7.0) with 6 μL of 0.15% NaHCO3+90 mM acetylthiocholine iodide/1 μL of H2O+2 μL of 0.1 M phosphate buffer (pH 8.0)] was added and the absorbance (412 nm) of anions (yellow) of 5-thio-2-nitrobenzoic acid generated by reaction of the produced thiocholine with DTNB anions was measured at room temperature. The acetylcholine esterase activity was determined from the change in absorbance between two minutes and four minutes after the start of the reaction. The inhibition rate (%) of the test compound was determined based on the acetylcholine esterase activity when the compound was not added as 100% and the 50% inhibition concentration (IC50) was calculated.

Row | SMILES | IC50 [1] | IC50 [2]
1 | CN(C)Cc1c(OCc2ccc(F)cc2)ccc2c(CCC3CCN(CC4OCCO4)CC3)noc12 [Example 22, N,N-Dimethyl{3-{2-[1-(1,3-dioxolan-2-ylmethyl)piperidin-4-yl]ethyl}-6-(4-fluorobenzyloxy)benz[d]isoxazol-7-yl}methylamine dihydrobromide] | 1.6 nM | 4.1 nM
2 | CN(C)Cc1c(OCC2CC2)ccc2c(CCC3CCN(Cc4ccccc4)CC3)noc12 [Example 39, N,N-Dimethyl{6-cyclopropylmethoxy-3-[2-(1-benzylpiperidin-4-yl)ethyl]benz[d]isoxazol-7-yl}methylamine dihydrochloride] | 13 nM | 0.4 nM
3 | CN(C)Cc1c(OCC2CC2)ccc2c(CCC3CCN(CC4(CO)CCCC4)CC3)noc12 [Example 51, {1-{4-{2-[6-Cyclopropylmethoxy-7-(N,N-dimethylaminomethyl)benz[d]isoxazol-3-yl]ethyl}piperidinomethyl}cyclopentyl}methanol dihydrochloride] | 1.9 nM | 3.6 nM
4 | CNCc1c(OCc2ccc(F)cc2)ccc2c(CCC3CCN(CC4OCCO4)CC3)noc12 [Example 78, N-Methyl{3-{2-[1-(1,3-dioxolan-2-ylmethyl)piperidin-4-yl]ethyl}-6-(4-fluorobenzyloxy)benz[d]isoxazol-7-yl}methylamine dihydrochloride] | 1.1 nM | 0.7 nM
5 | CN(C)Cc1c(OCC2CC2)ccc2c(CCC3CCN(Cc4c[nH]c5ccc(F)cc45)CC3)noc12 [Example 88, N,N-Dimethyl{6-cyclopropylmethoxy-3-{2-[1-(5-fluoro-1H-indol-3-ylmethyl)piperidin-4-yl]ethyl}benz[d]isoxazol-7-yl}methylamine dihydrochloride] | 5.3 nM | 7.7 nM
6 | CN(C)Cc1c(OCC2CC2)ccc2c(CCC3CCN(CC4CCCc5sccc54)CC3)noc12 (centres unmarked) [Example 93, N,N-Dimethyl{6-cyclopropylmethoxy-3-{2-[1-(4,5,6,7-tetrahydrobenzo[b]thiophen-4-ylmethyl)piperidin-4-yl]ethyl}benz[d]isoxazol-7-yl}methylamine dihydrochloride] | 8.9 nM | 73 nM
7 | N#Cc1ccc(CN2CCC(CCc3noc4c(CN5CCC5)c(OCC5CC5)ccc34)CC2)s1 [Example 118, 5-{4-{2-[7-(Azetidin-1-ylmethyl)-6-cyclopropylmethoxybenz[d]isoxazol-3-yl]ethyl}piperidinomethyl}thiophene-2-carbonitrile fumarate] | 10 nM | 12 nM
8 | CN(C)Cc1c(-c2ccccc2)ccc2c(CCC3CCN(Cc4ccccc4)CC3)noc12 [Example 120, N,N-Dimethyl{3-[2-(1-benzylpiperidin-4-yl)ethyl]-6-phenylbenz[d]isoxazol-7-yl}methylamine dihydrochloride] | 0.9 nM | 1.3 nM
9 | CN(C)Cc1c2ccccc2cc2c(CCC3CCN(Cc4ccc(C#N)s4)CC3)noc12 [Example 151, 5-{4-{2-[9-(N,N-Dimethylaminomethyl)naphtho[2,3-d]isoxazol-3-yl]ethyl}piperidinomethyl}thiophene-2-carbonitrile dihydrochloride] | 54 nM | 33 nM
10 | CNCc1c2ccccc2cc2c(CCC3CCN(Cc4ccc(C#N)s4)CC3)noc12 [Example 152, 5-{4-{2-[9-(N-Methylaminomethyl)naphtho[2,3-d]isoxazol-3-yl]ethyl}piperidinomethyl}thiophene-2-carbonitrile dihydrochloride] | 10 nM | 4.9 nM
11 | CN(C)Cc1c(OCc2ccc(C#N)cc2)ccc2c(CCC3CCN(Cc4ccccc4)CC3)noc12 [Example 153, 4-{3-[2-(1-Benzylpiperidin-4-yl)ethyl]-7-(N,N-dimethylaminomethyl)benz[d]isoxazol-6-yloxymethyl}benzonitrile dihydrochloride] | 0.3 nM | 0.4 nM
12 | CN(C)Cc1c(OCc2ccc(C#N)cc2)ccc2c(CCC3CCN(CC4OCCO4)CC3)noc12 [Example 154, 4-{7-(N,N-Dimethylaminomethyl)-3-{2-[1-(1,3-dioxolan-2-ylmethyl)piperidin-4-yl]ethyl}benz[d]isoxazol-6-yloxymethyl}benzonitrile fumarate] | 1 nM | 3 nM
13 | CN(C)Cc1c(OCC2CC2)ccc2c(CCC3CCN(Cc4ccc(C#N)s4)CC3)noc12 [Example 155, 5-{4-{2-[6-Cyclopropylmethoxy-7-(N,N-dimethylaminomethyl)benz[d]isoxazol-3-yl]ethyl}piperidinomethyl}thiophene-2-carbonitrile dihydrochloride] | 5.3 nM | 5 nM
14 | CN(C)Cc1ccc2c(CCC3CCN(Cc4ccccc4)CC3)noc2c1OCC1CC1 [Example 178, N,N-Dimethyl{3-[2-(1-benzylpiperidin-4-yl)ethyl]-7-cyclopropylmethoxybenz[d]isoxazol-6-yl}methylamine dihydrochloride] | 62 nM | 4.1 nM
15 | CN(C)Cc1c(N2CCCCC2)ccc2c(CCC3CCN(Cc4ccc(C#N)s4)CC3)noc12 [Example 210, 5-{4-{2-[7-(N,N-Dimethylaminomethyl)-6-piperidinobenz[d]isoxazol-3-yl]ethyl}piperidinomethyl}thiophene-2-carbonitrile dihydrochloride] | 12 nM | 2.4 nM
16 | CN(C)Cc1c(N2CCOCC2)ccc2c(CCC3CCN(Cc4ccc(C#N)s4)CC3)noc12 [Example 213, 5-{4-{2-[7-(N,N-Dimethylaminomethyl)-6-morpholinobenz[d]isoxazol-3-yl]ethyl}piperidinomethyl}thiophene-2-carbonitrile dihydrochloride] | 19 nM | 3 nM
